Results from patent US9040527B2, “Pyrimidinediamine kinase inhibitors” (Rigel Pharmaceuticals, Inc., priority 2008, dated 2015).

Assays:
[1] = target: T1, PLK1 (Homo sapiens, UniProt P53350); assay: In vitro PLK1 ELISA assay (biochemical); parameters: purchased Cell Signalling 7728
Protocol: (§1) Inhibition of PLK1 was measured by quantifying phosphorylation of PLK1 substrates using chemiluminescent and fluorogenic probes. The protocols for these assays are provided below.
In Vitro PLK1 ELISA Assay
1. Preparation of Assay Plates.
Costar 96-well black or white solid flat high binding plates (Fisher Scientific, Catalog No. 07-200-591) were coated with Neutravidin (Pierce, Catalog No. 31000) using the following protocol. A 0.01 mg/mL solution of Neutravidin in 1× Phosphate Buffered Saline (“PBS”, Cellgro/Mediatech, Catalog No. 21-040-CV) was added to each well (100 μL/well) and was incubated for 18-24 hours at 4° C. The plates were then washed with 1× Phosphate Buffer Saline—Tween (“PBST”, Calbiochem, Catalog No. 524653) buffer using a plate washer. The plates were treated with bovine serum albumin (“BSA”, Sigma, Catalog No. A7906) to block non-specific binding sites, by adding a 2% BSA solution in 1×PBST buffer to each well (100 μL/well) and incubating the plates for 1 hour at room temperature. The plates were then washed with 1×PBST buffer using a plate washer.
2. PLK1-Catalyzed Phosphorylation Reaction
An aqueous buffer solution A having the following composition was prepared:
20 mM HEPES (Cellgro/Mediatech, Catalog No. 25-060Ci), pH 7.2;
5 mM MgCl2 (Sigma, Catalog No. M2393);
2 mM MnCl2.4H2O (EM Biosciences, Catalog No. MX0185-2);
1 mM Dithiothreitol (“DTT”, Fluka, Catalog No. B4184).
Next, the substrate solution B was prepared by adding 2.6 μL of 10 mM ATP (Sigma, Catalog No. A7699) and 6.4 μL of the 1 mM PLK1 substrate, CHK2-derived peptide Biotin-SSLETVSTQELYSIP (custom synthesized at Anaspec) SEQ ID: No. 1, to 4691 μL of the buffer solution A. The concentration of the ATP in solution B is 5.44 μM (1.36×); the concentration of the PLK1 substrate in solution B is 1.36 μM (1.36×).
Compound solutions C of varying concentrations for each compound were prepared by dissolving each compound in dimethylsulfoxide (DMSO, Sigma, Catalog No. D2650) to varying concentrations, followed by adding 2 μL of each solution to 38 μL of the buffer solution A, thereby forming 10× compound solutions in 5% DMSO.
A PLK1 solution D was prepared by adding 8.4 μL of 100 μg/mL PLK1 (Cell Signalling, Catalog No. 7728) to 1392 μL of the buffer solution A, thereby forming 0.6 μg/mL (6×) PLK1 solution.
The aqueous 1.36× substrate solution B was added to each well (44 μL/well) resulting in binding of the substrate to the plate via biotin/neutravidin interaction. Then 10× compound solutions C for each tested compound at each tested concentration were added to each well (6 μL/well). Next, 6×PLK1 solution D was added to each well (10 μL/well).
The final concentrations of tested compounds in each well were 10 μM, 3.3 μM, 1.1 μM, 0.36 μM, 0.12 μM, 0.04 μM, 0.014 μM, and 0.005 μM.
The obtained reaction mixtures were incubated in the wells for 45 minutes at room temperature, allowing PLK1-catalyzed phosphorylation of the substrate to proceed. The plates were then washed with 1×PBST solution using a plate washer, such that the bound phosphorylated or unphosphorylated substrate remains attached to the wells upon washing.
The washed plates were developed by treating the plates with a primary antibody that is specific for the phosphorylated substrate, followed by treatment with a secondary antibody that is specific for the primary antibody, and that is capable of catalyzing a reaction that results in a chemiluminescent readout. The chemiluminescent readout was used to quantify the substrate phosphorylation, and, consequently, to determine IC50 values for PLK1 inhibition, and was measured using a luminometer (Perkin Elmer/Wallac plate reader). The plate development protocol is described below.
A mixed antibody solution E was prepared by adding 1 μL of the primary antibody, rabbit p-CHK2(T68) (Rockland, Catalog No. 401280), and 1 μL of the secondary antibody, HRP-goat anti-rabbit IgG (Jackson Immunoresearch Catalog No. 111-035-003) to 10000 μL of 0.1% BSA in 1×PBST buffer. […]

[2] = target: T1, PLK1; assay: Cellular PLK1 assay in K562 cells overexpressing CDC25C; format: cell-based; parameters: endogenous in cells; host or cells: K562 (human chronic myelogenous leukemia) overexpressing CDC25C, nocodazole-arrested; conditions: nocodazole arrested, cdc25c p-Ser198 readout
Protocol: as §1
1. Culturing of K562 Cells
Human chronic myelogenous leukemia K562 cells (American Tissue Culture Collection) overexpressing CDC25C, were grown in Growth Medium having the following composition: Iscove Dulbecco's Modified Eagle's Medium (“Iscove DMEM”, Mediatech/Cellgro, Cat. #10-013-CV), 10% Fetal Bovine Serum (“FBS”, SAFC Biosciences, Cat. #12106-500M), and 1% penicillin/streptomycin (“pen-strep”, Mediatech/Cellgro, Cat. #30-002-CI). The cells were plated in 96 well round bottom tissue culture plates (Fisher, Costar* Cell Culture plates, Cat. #07-200-95) at 100,000 cells per 50 μL of Growth Medium per well. Nocodazole (Sigma, Cat. # M1404) was added to the growth media to arrest the cells in the G2 or M phase, at 333 nM concentration. The cells were incubated with nocodazole for 18 hours at 37° C. prior to addition of tested compounds.
2. Treatment of Cells with the Tested Compounds
Solutions of tested compounds in DMSO at different concentrations were prepared using serial dilutions. Each compound was tested at 8 concentration points, 10 μM, 3.3 μM, 1.11 μM, 0.37 μM, 0.12 μM, 0.04 μM, 0.014 μM, 0.005 μM, duplicate replicates.
Two controls were performed: “DMSO alone” control in which nocodazole and DMSO were present but no compounds were added, and “nocodazole alone” control, in which only nocodazole was present, but neither DMSO nor compounds were added.
The solutions of compounds were prepared by diluting 10 mM compound 1:1 in DMSO (5 μL 10 mM compound and 5 μL DMSO), followed by 1:3 serial dilutions of compound in DMSO performed by diluting 3 μL of higher concentration compound solution serially into 6 μL DMSO to give 3-fold dilutions. Next, 3 μL of each compound solution at each concentration was transferred to 750 μL of Growth Medium. In “DMSO alone” control 3 μL of DMSO alone was added to 750 μL of Growth Medium.
After the diluted compounds were mixed well in the Growth Medium, 50 μL of each compound solution in DMSO/Growth Medium was transferred to each well of the 96-plate containing cells in 50 μL of Growth Medium/Nocodazole.
The cells and compounds were incubated for 120 minutes at 37° C., in an atmosphere containing 5% CO2.
3. Fixation and Permeabilization of the Cells
After the cells were incubated with compounds, the cells were spun down at 1,000 rpm for 5 minutes at 4° C. and supernatants were removed by flicking the plates. Cells were then washed with 200 μl of ice cold PBS, spun down again and supernatants removed. Cells were then fixed and permeabilized by addition of 100 μL/well of Fixation and Permeabilization Solution (1× buffer provided in BD Biosciences Cytofix/Cytoperm™ Fixation/Permeabilization kit, Cat. #554714) and incubation for 20 minutes at room temperature. The fixative was then removed by centrifugation (5 minutes at 2,000 rpm), and plates were flicked to remove the fixative and washed twice, each time with 200 μL/well BD Perm/Wash buffer (10× concentrate provided in BD Biosciences Cytofix/Cytoperm™ Fixation/Permeabilization kit, Cat. #554714, 1× buffer prepared by dilution in distilled H2O).
Cells were spun down at 1,000 rpm for 5 minutes at 4° C. Supernatants were removed by flicking the plates. A solution of a primary antibody specific for cdc25cp-Ser198 was prepared by diluting Rabbit cdc25c (Ser198) antibody (Cell Signaling, #9529L) 1:50 in a Fluorescence Activated Cell Sorting (“FACS”) Buffer (2% FBS in PBS). The cell pellets were resuspended in 50 μL of the primary antibody solution. 50 μL of FACS buffer was added to unstained controls. Staining was allowed to proceed overnight at room temperature.
The plates were then washed by addition of 200 μL of FACS Buffer to each well, were centrifuged and the supernatant was removed. […]

[3] = ELISA, CHK2-derived peptide substrate, read-out: PLK1 IC50 (μM) biochemical assay
[4] = read-out: IC50 in biochemical in vitro PLK1 ELISA assay (less than 10 μM)

T1 sequence (P53350 whole entry): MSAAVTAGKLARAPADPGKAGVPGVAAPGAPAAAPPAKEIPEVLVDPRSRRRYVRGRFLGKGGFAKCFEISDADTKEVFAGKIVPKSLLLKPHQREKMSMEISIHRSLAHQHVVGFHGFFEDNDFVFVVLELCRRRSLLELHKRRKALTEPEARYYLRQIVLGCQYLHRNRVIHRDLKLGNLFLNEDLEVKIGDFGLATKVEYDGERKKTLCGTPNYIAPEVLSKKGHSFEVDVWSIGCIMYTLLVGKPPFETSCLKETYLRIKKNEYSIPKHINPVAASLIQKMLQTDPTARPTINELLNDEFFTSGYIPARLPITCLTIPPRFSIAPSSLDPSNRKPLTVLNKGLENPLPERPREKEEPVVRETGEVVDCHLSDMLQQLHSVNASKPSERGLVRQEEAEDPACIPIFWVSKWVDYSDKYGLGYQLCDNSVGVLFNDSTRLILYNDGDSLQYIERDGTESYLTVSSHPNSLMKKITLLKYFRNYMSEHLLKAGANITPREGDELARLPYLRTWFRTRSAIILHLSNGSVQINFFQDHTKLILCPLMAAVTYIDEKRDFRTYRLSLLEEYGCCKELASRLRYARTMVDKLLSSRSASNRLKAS

SMILES | IC50 [1, 3] [µM] | IC50 ([1]; read-out: IC50 in biochemical ELISA assay (less than 0.01 μM)) [µM] | IC50 [1, 4] [µM] | IC50 [2] [µM]
CN1CCN(c2cccc(Nc3ncc(F)c(Nc4ccc5c(c4)NC(=O)CO5)n3)c2)CC1 [compound 17, 6-(5-fluoro-2-(3-(4-methylpiperazin-1-yl)phenylamino)pyrimidin-4-ylamino)-2H-benzo[b][1,4]oxazin-3(4H)-one] | < 0.5 | < 0.01 | < 10 | 0.5 to 5
O=C1COc2ccc(Nc3nc(Nc4cccc(N5CCNCC5)c4)ncc3F)cc2N1 [compound 18, 6-(5-fluoro-2-(3-(piperazin-1-yl)phenylamino)pyrimidin-4-ylamino)-2H-benzo[b][1,4]oxazin-3(4H)-one] | < 0.5 | – | < 10 | 0.5 to 5
CN1CCN(c2cccc(Nc3ncc(F)c(Nc4ccc5c(c4)NCCO5)n3)c2)CC1 [compound 20, N4-(3,4-dihydro-2H-benzo[b][1,4]oxazin-6-yl)-5-fluoro-N2-(3-(4-methylpiperazin-1-yl)phenyl)pyrimidine-2,4-diamine] | < 0.5 | – | < 10 | 0.5 to 5
Cc1cnc(Nc2ccc(N3CCN(C)CC3)cc2)nc1Nc1ccc2c(n1)NC(=O)C(C)(C)O2 [compound 88, 2,2-dimethyl-6-(5-methyl-2-(4-(4-methylpiperazin-1-yl)phenylamino)pyrimidin-4-ylamino)-2H-pyrido[3,2-b][1,4]oxazin-3(4H)-one] | – | – | – | ≥ 10
CCN1CCN(c2ccc(Nc3ncc(C)c(Nc4ccc5c(n4)N(C)C(=O)CO5)n3)cc2)CC1 [compound 91, 6-(2-(4-(4-ethylpiperazin-1-yl)phenylamino)-5-methylpyrimidin-4-ylamino)-4-methyl-2H-pyrido[3,2-b][1,4]oxazin-3(4H)-one] | – | – | – | ≥ 10
CCN1CCN(c2ccc(Nc3ncc(C)c(Nc4ccc5c(n4)NC(=O)C(C)(C)O5)n3)cc2)CC1 [compound 92, 6-(2-(4-(4-ethylpiperazin-1-yl)phenylamino)-5-methylpyrimidin-4-ylamino)-2,2-dimethyl-2H-pyrido[3,2-b][1,4]oxazin-3(4H)-one] | – | – | – | ≥ 10
CCN1CCN(c2ccc(Nc3ncc(C)c(Nc4ccc5c(n4)N(C)C(=O)C(C)(C)O5)n3)cc2)CC1 [compound 94, 6-(2-(4-(4-ethylpiperazin-1-yl)phenylamino)-5-methylpyrimidin-4-ylamino)-2,2,4-trimethyl-2H-pyrido[3,2-b][1,4]oxazin-3(4H)-one] | – | – | – | ≥ 10
Cc1cc(Nc2ncc(C)c(Nc3ccc4c(n3)N(C)C(=O)C(C)(C)O4)n2)ccc1N1CCN(C)CC1 [compound 98, 2,2,4-trimethyl-6-(5-methyl-2-(3-methyl-4-(4-methylpiperazin-1-yl)phenylamino)pyrimidin-4-ylamino)-2H-pyrido[3,2-b][1,4]oxazin-3(4H)-one] | – | – | – | ≥ 10
CCOC(=O)N1CCN(c2ccc(Nc3ncc(F)c(Nc4ccc5c(n4)NCCO5)n3)cc2)CC1 [compound 163, ethyl 4-(4-(4-(3,4-dihydro-2H-pyrido[3,2-b][1,4]oxazin-6-ylamino)-5-fluoropyrimidin-2-ylamino)phenyl)piperazine-1-carboxylate] | – | – | – | ≥ 10
CC(=O)N1CCN(c2cccc(Nc3ncc(F)c(Nc4ccc5c(n4)NCCO5)n3)c2)CC1 [compound 164, 1-(4-(3-(4-(3,4-dihydro-2H-pyrido[3,2-b][1,4]oxazin-6-ylamino)-5-fluoropyrimidin-2-ylamino)phenyl)piperazin-1-yl)ethanone] | – | – | – | ≥ 10
CCOC(=O)N1CCN(c2cccc(Nc3ncc(F)c(Nc4ccc5c(n4)NCCO5)n3)c2)CC1 [compound 165, ethyl 4-(3-(4-(3,4-dihydro-2H-pyrido[3,2-b][1,4]oxazin-6-ylamino)-5-fluoropyrimidin-2-ylamino)phenyl)piperazine-1-carboxylate] | – | – | – | ≥ 10
CN1CCN(c2ccc(Nc3ncc(F)c(Nc4ccc5c(n4)NCCO5)n3)cc2)CC1 [compound 166, N4-(3,4-dihydro-2H-pyrido[3,2-b][1,4]oxazin-6-yl)-5-fluoro-N2-(4-(4-methylpiperazin-1-yl)phenyl)pyrimidine-2,4-diamine] | – | – | – | ≥ 10
Cc1cnc(Nc2ccc(N3CCN(C)CC3)nc2)nc1Nc1ccc2c(c1)N(C)C(=O)C(C)(C)O2 [compound 202, 2,2,4-trimethyl-6-(5-methyl-2-(6-(4-methylpiperazin-1-yl)pyridin-3-ylamino)pyrimidin-4-ylamino)-2H-benzo[b][1,4]oxazin-3(4H)-one] | – | – | – | ≥ 10
